Measurements reported in ChEMBL document CHEMBL1145498, “A systematic interaction map of validated kinase inhibitors with Ser/Thr kinases” (Proc Natl Acad Sci U S A, 2007).

Experiments:
[1] = molecular target: 5'-AMP-activated protein kinase catalytic subunit alpha-2 (Homo sapiens) (UniProt P54646)
[2] = molecular target: T1, Serine/threonine-protein kinase VRK3 (Homo sapiens) (UniProt Q8IV63)
T1 sequence (whole entry): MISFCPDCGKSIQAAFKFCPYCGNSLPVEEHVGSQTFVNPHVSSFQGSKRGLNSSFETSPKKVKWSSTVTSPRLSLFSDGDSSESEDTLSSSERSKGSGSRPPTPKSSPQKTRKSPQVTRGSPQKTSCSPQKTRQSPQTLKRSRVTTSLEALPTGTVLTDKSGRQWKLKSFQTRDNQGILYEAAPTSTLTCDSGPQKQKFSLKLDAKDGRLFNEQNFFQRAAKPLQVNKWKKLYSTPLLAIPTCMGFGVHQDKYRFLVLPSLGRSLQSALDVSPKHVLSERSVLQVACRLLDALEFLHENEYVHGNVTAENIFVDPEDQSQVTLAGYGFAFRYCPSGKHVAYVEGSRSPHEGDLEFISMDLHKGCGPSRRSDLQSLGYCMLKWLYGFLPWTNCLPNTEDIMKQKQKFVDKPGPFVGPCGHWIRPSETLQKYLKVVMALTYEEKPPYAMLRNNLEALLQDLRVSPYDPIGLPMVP

[3] = molecular target: Serine/threonine-protein kinase 38 (Homo sapiens) (UniProt Q15208)
[4] = molecular target: Serine/threonine-protein kinase 25 (Homo sapiens) (UniProt O00506)
[5] = molecular target: Glycogen synthase kinase-3 beta (Homo sapiens, UniProt P49841)
[6] = molecular target: Mitogen-activated protein kinase 3 (Homo sapiens, UniProt P27361)
[7] = molecular target: Calcium/calmodulin-dependent protein kinase type II subunit beta (Homo sapiens) (UniProt Q13554)
[8] = molecular target: Calcium/calmodulin-dependent protein kinase type II subunit gamma (Homo sapiens) (UniProt Q13555)
[9] = molecular target: Serine/threonine-protein kinase 26 (Homo sapiens) (UniProt Q9P289)
[10] = molecular target: Ribosomal protein S6 kinase alpha-3 (Homo sapiens) (UniProt P51812)
[11] = molecular target: T2, Serine/threonine-protein kinase Nek2 (Homo sapiens) (UniProt P51955)
T2 sequence (whole entry): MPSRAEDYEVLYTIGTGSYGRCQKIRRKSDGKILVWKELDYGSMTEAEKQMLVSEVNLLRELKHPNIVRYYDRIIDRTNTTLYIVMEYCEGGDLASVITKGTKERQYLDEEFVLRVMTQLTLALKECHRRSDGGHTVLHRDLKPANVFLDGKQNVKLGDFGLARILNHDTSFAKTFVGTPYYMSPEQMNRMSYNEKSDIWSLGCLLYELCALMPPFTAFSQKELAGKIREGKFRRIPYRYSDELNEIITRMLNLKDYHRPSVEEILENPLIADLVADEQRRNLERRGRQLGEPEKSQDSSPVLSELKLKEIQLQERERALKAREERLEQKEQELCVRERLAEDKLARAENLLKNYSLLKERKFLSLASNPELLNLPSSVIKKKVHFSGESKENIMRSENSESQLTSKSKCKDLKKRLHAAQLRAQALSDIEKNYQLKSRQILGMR

[12] = molecular target: Dual specificity mitogen-activated protein kinase kinase 2 (Homo sapiens, UniProt P36507)
[13] = molecular target: T3, Mitogen-activated protein kinase kinase kinase 5 (Homo sapiens) (UniProt Q99683)
T3 sequence (whole entry): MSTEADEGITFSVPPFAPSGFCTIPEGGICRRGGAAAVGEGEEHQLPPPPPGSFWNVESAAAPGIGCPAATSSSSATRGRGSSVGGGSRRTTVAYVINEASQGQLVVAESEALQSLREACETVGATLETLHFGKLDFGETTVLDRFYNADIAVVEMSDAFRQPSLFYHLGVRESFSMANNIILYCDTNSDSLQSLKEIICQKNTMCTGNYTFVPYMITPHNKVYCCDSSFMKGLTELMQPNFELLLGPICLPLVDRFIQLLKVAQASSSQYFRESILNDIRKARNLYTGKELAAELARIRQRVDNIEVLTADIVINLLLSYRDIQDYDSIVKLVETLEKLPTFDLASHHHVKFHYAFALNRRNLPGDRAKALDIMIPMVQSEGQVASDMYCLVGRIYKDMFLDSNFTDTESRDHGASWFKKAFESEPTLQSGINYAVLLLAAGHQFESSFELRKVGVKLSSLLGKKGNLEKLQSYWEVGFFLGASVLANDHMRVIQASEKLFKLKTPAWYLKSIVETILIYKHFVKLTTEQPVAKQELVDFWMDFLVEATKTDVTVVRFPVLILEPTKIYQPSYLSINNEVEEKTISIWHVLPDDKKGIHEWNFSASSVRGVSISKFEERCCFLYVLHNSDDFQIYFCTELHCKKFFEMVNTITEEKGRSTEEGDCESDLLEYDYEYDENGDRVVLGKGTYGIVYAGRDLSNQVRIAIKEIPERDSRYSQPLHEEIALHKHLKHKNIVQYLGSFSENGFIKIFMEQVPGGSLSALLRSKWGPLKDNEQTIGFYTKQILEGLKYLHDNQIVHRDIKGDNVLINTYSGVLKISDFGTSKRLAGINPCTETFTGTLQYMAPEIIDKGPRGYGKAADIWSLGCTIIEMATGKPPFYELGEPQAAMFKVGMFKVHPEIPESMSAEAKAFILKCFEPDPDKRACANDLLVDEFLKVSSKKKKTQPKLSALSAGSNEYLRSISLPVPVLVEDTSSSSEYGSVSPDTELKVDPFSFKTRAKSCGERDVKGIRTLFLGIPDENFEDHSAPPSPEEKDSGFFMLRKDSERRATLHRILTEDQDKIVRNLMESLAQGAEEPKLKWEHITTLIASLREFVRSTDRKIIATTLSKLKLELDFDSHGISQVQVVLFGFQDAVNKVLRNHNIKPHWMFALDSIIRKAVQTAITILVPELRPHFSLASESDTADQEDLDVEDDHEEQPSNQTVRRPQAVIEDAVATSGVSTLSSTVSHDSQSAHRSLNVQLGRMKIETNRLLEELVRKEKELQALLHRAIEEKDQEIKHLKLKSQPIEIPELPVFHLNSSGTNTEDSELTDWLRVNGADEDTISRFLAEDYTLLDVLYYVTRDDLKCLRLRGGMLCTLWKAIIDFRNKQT

[14] = molecular target: Serine/threonine-protein kinase RIO2 (Homo sapiens) (UniProt Q9BVS4)

Chain of Serine/threonine-protein kinase 26 (Homo sapiens) (Q9P289 2-416 limits assumed): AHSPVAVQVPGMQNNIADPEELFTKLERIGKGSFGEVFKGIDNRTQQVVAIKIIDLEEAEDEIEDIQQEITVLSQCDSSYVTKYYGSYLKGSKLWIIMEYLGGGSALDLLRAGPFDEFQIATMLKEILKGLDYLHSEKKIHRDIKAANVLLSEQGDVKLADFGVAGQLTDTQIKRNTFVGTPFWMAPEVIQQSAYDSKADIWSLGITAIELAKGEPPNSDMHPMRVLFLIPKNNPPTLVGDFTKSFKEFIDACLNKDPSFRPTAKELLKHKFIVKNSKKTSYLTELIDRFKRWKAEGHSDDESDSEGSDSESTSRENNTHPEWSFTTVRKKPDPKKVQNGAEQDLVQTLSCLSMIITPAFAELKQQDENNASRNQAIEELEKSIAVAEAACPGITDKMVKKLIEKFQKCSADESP
Chain of Ribosomal protein S6 kinase alpha-3 (Homo sapiens) (P51812 whole entry): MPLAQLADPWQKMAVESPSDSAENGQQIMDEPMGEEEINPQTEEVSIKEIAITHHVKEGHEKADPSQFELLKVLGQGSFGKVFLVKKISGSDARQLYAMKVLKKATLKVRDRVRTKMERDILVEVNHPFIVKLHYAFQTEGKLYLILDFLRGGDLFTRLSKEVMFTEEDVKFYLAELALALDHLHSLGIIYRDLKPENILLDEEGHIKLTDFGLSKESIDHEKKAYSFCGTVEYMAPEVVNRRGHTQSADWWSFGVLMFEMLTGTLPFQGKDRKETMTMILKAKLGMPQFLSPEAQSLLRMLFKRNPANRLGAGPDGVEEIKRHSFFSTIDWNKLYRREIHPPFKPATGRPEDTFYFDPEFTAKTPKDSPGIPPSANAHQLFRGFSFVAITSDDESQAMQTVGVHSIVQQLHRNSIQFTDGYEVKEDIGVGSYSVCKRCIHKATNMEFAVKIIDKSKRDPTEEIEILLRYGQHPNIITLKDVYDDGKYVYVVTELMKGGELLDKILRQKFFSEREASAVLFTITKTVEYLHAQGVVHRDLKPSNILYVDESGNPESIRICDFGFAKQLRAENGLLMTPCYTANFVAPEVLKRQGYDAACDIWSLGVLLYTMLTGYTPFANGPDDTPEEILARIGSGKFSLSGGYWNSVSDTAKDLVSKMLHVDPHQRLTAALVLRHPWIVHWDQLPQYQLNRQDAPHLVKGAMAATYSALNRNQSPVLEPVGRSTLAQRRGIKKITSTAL
Chain of Serine/threonine-protein kinase 25 (Homo sapiens) (O00506 whole entry, looked up): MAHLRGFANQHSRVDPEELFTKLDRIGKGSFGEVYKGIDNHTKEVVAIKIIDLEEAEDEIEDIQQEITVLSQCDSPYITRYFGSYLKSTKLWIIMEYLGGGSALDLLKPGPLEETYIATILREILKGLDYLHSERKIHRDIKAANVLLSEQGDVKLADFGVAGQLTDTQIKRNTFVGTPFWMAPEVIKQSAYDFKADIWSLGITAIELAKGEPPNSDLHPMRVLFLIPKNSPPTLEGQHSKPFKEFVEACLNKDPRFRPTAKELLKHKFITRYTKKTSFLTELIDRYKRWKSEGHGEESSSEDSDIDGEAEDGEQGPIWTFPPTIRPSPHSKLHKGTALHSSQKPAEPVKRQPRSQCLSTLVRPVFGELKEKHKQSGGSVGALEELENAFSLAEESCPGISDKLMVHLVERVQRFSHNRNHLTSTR
Chain of Serine/threonine-protein kinase 38 (Homo sapiens) (Q15208 2-465 limits assumed): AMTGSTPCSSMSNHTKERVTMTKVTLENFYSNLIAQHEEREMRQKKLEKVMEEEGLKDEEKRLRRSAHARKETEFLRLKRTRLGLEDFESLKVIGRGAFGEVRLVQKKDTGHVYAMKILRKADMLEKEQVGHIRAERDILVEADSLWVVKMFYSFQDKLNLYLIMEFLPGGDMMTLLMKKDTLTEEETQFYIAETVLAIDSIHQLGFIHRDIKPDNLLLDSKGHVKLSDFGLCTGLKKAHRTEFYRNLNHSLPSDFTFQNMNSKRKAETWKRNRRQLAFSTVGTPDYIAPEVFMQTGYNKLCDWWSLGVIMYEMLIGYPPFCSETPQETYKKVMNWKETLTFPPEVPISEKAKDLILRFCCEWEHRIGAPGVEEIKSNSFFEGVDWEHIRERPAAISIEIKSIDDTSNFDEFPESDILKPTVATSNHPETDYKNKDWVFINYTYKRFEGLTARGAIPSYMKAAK
Chain of 5'-AMP-activated protein kinase catalytic subunit alpha-2 (Homo sapiens) (P54646 whole entry, looked up): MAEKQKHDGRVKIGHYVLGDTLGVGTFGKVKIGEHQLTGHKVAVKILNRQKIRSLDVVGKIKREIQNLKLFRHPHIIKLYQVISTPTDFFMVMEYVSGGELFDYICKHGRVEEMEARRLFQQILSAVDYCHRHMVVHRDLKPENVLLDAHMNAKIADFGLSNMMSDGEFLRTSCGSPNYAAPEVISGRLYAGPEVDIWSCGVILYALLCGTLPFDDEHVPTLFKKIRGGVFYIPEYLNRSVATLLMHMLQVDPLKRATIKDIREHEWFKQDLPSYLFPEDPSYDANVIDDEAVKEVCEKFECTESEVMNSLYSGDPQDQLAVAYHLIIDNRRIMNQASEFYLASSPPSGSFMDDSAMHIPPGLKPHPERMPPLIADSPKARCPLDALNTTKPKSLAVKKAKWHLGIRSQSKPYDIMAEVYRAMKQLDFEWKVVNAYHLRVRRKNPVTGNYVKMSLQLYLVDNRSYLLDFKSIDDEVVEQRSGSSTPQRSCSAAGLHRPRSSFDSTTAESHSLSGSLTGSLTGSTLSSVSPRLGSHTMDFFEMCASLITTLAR
Chain of Glycogen synthase kinase-3 beta (P49841 whole entry, looked up): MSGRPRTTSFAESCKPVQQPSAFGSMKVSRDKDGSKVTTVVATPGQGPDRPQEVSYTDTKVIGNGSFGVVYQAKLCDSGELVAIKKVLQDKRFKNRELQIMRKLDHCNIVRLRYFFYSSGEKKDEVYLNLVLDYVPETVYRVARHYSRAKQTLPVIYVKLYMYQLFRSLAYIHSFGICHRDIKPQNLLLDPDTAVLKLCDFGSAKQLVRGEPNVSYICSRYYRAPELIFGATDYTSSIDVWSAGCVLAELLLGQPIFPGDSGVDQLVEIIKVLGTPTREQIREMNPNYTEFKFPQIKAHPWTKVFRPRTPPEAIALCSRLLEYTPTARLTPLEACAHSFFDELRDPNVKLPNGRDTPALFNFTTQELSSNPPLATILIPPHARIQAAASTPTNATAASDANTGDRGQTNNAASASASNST
Chain of Calcium/calmodulin-dependent protein kinase type II subunit beta (Homo sapiens) (Q13554 whole entry): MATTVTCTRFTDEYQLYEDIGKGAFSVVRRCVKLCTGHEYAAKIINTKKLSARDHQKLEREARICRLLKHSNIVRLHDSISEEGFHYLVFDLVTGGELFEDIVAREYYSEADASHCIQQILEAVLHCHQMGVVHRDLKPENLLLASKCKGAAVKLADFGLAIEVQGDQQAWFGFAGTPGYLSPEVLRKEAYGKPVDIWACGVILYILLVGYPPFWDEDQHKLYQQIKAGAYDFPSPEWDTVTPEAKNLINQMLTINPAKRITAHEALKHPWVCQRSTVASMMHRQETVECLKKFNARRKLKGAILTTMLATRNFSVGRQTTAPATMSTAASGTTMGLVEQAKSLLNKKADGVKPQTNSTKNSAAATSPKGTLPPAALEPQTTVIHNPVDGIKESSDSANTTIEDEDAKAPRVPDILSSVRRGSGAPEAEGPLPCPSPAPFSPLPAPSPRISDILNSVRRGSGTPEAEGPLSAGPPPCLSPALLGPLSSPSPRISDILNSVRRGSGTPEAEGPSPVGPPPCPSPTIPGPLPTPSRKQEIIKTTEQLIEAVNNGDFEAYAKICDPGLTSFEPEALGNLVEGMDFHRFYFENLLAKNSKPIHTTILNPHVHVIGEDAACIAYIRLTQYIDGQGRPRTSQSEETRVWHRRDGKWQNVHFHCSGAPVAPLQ
Chain of Mitogen-activated protein kinase 3 (P27361 whole entry): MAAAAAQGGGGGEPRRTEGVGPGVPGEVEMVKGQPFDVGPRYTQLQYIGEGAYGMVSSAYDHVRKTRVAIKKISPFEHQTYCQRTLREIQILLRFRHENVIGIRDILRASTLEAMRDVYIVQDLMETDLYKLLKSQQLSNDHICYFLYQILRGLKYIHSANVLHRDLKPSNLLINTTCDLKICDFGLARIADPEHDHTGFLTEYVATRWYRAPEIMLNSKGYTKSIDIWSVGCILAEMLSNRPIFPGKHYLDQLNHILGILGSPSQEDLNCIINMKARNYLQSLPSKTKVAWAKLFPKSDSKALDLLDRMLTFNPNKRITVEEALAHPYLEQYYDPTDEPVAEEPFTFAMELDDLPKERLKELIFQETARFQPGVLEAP
Chain of Dual specificity mitogen-activated protein kinase kinase 2 (P36507 whole entry): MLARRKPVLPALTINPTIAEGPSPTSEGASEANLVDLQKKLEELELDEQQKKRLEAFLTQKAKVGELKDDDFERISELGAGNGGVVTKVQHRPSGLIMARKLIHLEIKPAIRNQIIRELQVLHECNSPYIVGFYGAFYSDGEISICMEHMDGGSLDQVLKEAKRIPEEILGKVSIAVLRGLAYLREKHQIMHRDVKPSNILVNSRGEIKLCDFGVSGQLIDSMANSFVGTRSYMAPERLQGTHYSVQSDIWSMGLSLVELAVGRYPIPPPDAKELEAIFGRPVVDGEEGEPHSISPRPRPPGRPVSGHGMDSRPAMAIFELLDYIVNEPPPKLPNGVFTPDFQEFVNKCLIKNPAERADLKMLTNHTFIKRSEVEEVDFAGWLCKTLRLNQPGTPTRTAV

SMILES | ΔTm [1] | ΔTm [2] | ΔTm [3] | ΔTm [4] | ΔTm [5] | ΔTm [6] | ΔTm [7] | ΔTm [8] | ΔTm [9] | ΔTm [10] | ΔTm [11] | ΔTm [12] | ΔTm [13] | ΔTm [14]
COC1=C2C[C@@H](C)C[C@H](OC)[C@H](O)[C@@H](C)/C=C(\C)[C@H](OC(N)=O)[C@@H](OC)/C=C\C=C(/C)C(=O)NC(=CC1=O)C2=O | 0.4 °C | -0.7 °C | 0.2 °C | -0.6 °C | 0.5 °C | 0.1 °C | -0.1 °C | 0.1 °C | -0.4 °C | -0.3 °C | 0.5 °C | -0.5 °C | -0.5 °C | -0.6 °C
O=S(=O)(NCCNC/C=C/c1ccc(Br)cc1)c1cccc2cnccc12 | 0.9 °C | 0.2 °C | 1.7 °C | 1 °C | -0.6 °C | -0.3 °C | -0.2 °C | 0 °C | 1.2 °C | 0.6 °C | -0.2 °C | 0 °C | -0.3 °C | 0 °C
O=C1NC(=O)C(c2c[nH]c3ccccc23)=C1c1c[nH]c2ccccc12 | 1.2 °C | 1.2 °C | 0.5 °C | 2 °C | 7.8 °C | 0.1 °C | 1.2 °C | 2.2 °C | 0.9 °C | 1 °C | 1.9 °C | 2.8 °C | 0.2 °C | 0 °C
O=c1cc(-c2ccc(O)cc2)oc2cc(O)cc(O)c12 | 1.5 °C | 0.2 °C | 1.1 °C | 4.9 °C | 5 °C | 0.5 °C | 0.5 °C | -11.5 °C | 3.1 °C | 2.4 °C | 1.4 °C | 0.7 °C | 1.1 °C | 0.2 °C
N#C/C(=C\c1ccc(O)c(O)c1)C(=O)Nc1ccccc1 | -0.3 °C | 0 °C | 0 °C | 0.5 °C | 0.7 °C | 0.5 °C | 0.2 °C | -0.2 °C | 0.3 °C | 0.8 °C | 1.4 °C | 0.3 °C | -0.2 °C | 0.5 °C
N#C/C(=C1/Nc2ccccc2S1)c1ccnc(NCCc2cccnc2)n1 | 6 °C | 0.9 °C | 2.2 °C | 0.8 °C | 11.4 °C | 1.7 °C | 1.8 °C | 1 °C | 2 °C |  | 1.9 °C | 3.8 °C | 3.6 °C | 7 °C
COC(=O)[C@]1(O)C[C@@H]2O[C@@]1(C)n1c3ccccc3c3c4c(c5c6ccccc6n2c5c31)C(=O)NC4 (single isomer, unassigned) | 7.6 °C | -0.2 °C | 3.9 °C | 4.4 °C | 4.5 °C | 2 °C | 2.7 °C | 6.5 °C | 3 °C | 5.1 °C | 1.9 °C |  | 12.7 °C | 1.4 °C
COc1cc2ncnc(Nc3cccc(O)c3)c2cc1OC | -0.5 °C |  | 0.4 °C | 0.6 °C | 2.2 °C | -0.2 °C | 0.2 °C | 0.5 °C |  |  | 0.2 °C | 0.1 °C | 1 °C | 3.4 °C
O=C1c2ccccc2-c2n[nH]c3cccc1c23 | 2.1 °C | 0.1 °C | 1 °C | 4.8 °C | 1.6 °C | 0.9 °C |  | 0.8 °C | 2.1 °C | 7 °C | 2.3 °C | 1.3 °C | 8.8 °C | 2.2 °C
COc1ccc(CNC(=O)Nc2ncc([N+](=O)[O-])s2)cc1 | -0.1 °C | -0.5 °C | 0.1 °C | 0.1 °C | 7.3 °C | 0.2 °C | -0.5 °C | -0.2 °C | -0.3 °C |  | 0.6 °C | -0.5 °C | -0.4 °C | 1.7 °C
C[C@@H](N)[C@H]1CC[C@H](C(=O)Nc2ccncc2)CC1 | 0.5 °C | 0.2 °C | 0.4 °C | 0 °C | 0.6 °C | 0.1 °C |  | 1 °C | 0.2 °C |  | -0.1 °C | -0.4 °C | 1.1 °C | 0.3 °C
CC(C)(C)c1nc2c3ccc(F)cc3c3c(=O)[nH]ccc3c2[nH]1 | 6.4 °C | 0.2 °C | 3.7 °C | 2.9 °C | 3 °C | 3.1 °C | 1.3 °C | 4.5 °C | 4.1 °C |  | 0.7 °C | 3.6 °C | 4.9 °C | 0.7 °C
CN[C@@H]1CC2O[C@@](C)([C@@H]1OC)n1c3ccccc3c3c4c(c5c6ccccc6n2c5c31)C(=O)NC4 | 16.7 °C | 0.3 °C | 5.7 °C | 9.6 °C |  | 1.3 °C |  | 14.6 °C | 9.3 °C |  | 2.8 °C |  | 16.3 °C | 0.5 °C
COc1cc2ncnc(Nc3ccc(F)c(Cl)c3)c2cc1OCCCN1CCOCC1 | -0.3 °C | 0.6 °C | 0.5 °C |  | 0.9 °C | -0.2 °C | 0.3 °C | 0.4 °C | 0 °C | 5.3 °C | 1.1 °C | 0.2 °C | 0.1 °C | 2 °C
